Experimental data published in patent US5597894A (The Louisiana State University Medical Center Foundation, priority 1995, dated 1997).
Where two headings read alike, the source gives them in different places. Positions of bridges follow the written chain, without caps; N, C: chain ends. Non-standard residues stand in square brackets, D forms with d. Residues, ends and D or L forms follow the SMILES beside them.

How the values were obtained:
[1] = tested on: rat pituitary cells, which express SSTR2; experiment: Inhibition of growth hormone (GH) release from acutely dispersed rat pituitary cells; assay type: cell-based; details: in the presence of 1 nM GRF(1-29)NH2, 3 h at 37° C., number in brackets = samples tested
From the text: Pituitaries from adult Charles River CD male rats (Wilmington, Mass.) housed under controlled conditions (lights on from 0500-1900 hrs), were dispersed and cultured using aseptic technique as previously described with modifications (Hoefer et al., Mol. Cell Endocrinol., 35:229, (1984); Ben-Jonathan et al., i Methods Enzymol., 103:249, (1983); and Heiman et al., Endocrinology, 116:410, (1985).
Briefly, pituitaries were removed from decapitated rats, sectioned, and then placed in a siliconized, liquid scintillation vial containing 2 ml 0.2% trypsin (Worthington Biochemicals, Freehold, N.J.) in sterile-filtered Krebs-Ringer bicarbonate buffer supplemented with 1% bovine serum albumin, 14 mM glucose, modified Eagle medium (MEM) vitamin solution and MEM amino acids (Gibco Laboratories, Grand Island, N.Y.) (KRBGA). All glassware was siliconized as described by Sayers et al., Endocrinology, 88:1063, (1971). The pituitary fragments were incubated in a water bath for 35 min at 37° C. with agitation. The vial contents were then poured into a scintillation vial containing 2 ml 0.1% DNase (Sigma Chemical Co., St. Louis, Mo.) in KRBGA and incubated for 2 min at 37° C. with agitation. After incubation the tissue was decanted into a 15 ml centrifuge tube and allowed to settle. The medium was discarded, and the pituitary sections were washed 3 times with 1 ml fresh KRBGA. The cells were dispersed in 2 ml 0.05% LBI (lima bean trypsin inhibitor, Worthington Biochemicals) by gently drawing the fragments into and expelling them out of a siliconized, fire-polished Pasteur pipette. Dispersed cells were filtered through a 630 μm diameter Nylon mesh (Tetko, Elmsford, N.Y.) into a fresh 15 ml centrifuge tube. An additional 2 ml of 0.05% LBI solution was used to rinse the first tube and was transferred to the second tube with filtering.
The dispersed cells were further diluted with approximately 15 ml sterile-filtered Dulbecco's modified Eagle medium (GIBCO), supplemented with 2.5% fetal calf serum (GIBCO), 3% horse serum (GIBCO), 10% fresh rat serum (stored on ice for no longer than 1 h) from the pituitary donors, 1% MEM non-essential amino acids (GIBCO), gentamycin ([…]; Sigma) and nystatin (10,000 U/ml; GIBCO). The cells were poured into a 50 ml round-bottomed glass extraction flask with a large diameter opening, counted with a hemacytometer (approximately 2,000,000 cells per pituitary), and randomly plated at a density of 200,000 cells per well (Co-star cluster 24; Rochester Scientific Co., Rochester, N.Y.). The plated cells were maintained in Dulbecco's medium in a humidified atmosphere of 95% air and 5% CO2 at 37° C. for 4 days to 5 days.
In preparation for a hormone challenge, the cells were washed 3 times with medium 199 (GIBCO) to remove old medium and floating cells. […] After 3 h at 37° C. in an air/carbon dioxide atmosphere (95/5%), the medium was removed and stored at -20 ° C. until assayed for hormone content. IC50 's (a concentration that provides half-maximal inhibition of GH release) were calculated using the computer program SigmaPlot (Jandel Scientific, San Rafael, Calif.).

[2] = Stability of 131I-labeled peptides stored in saline; assay type: physicochemical; details: one week after labeling
Experimental: All specimen activity (μCi) was measured in a dose calibrator at least 30 minutes prior to intravenous injection. Radiolabeled peptide was injected through a peripheral arm vein in a free-flowing intravenous line. One week after labeling, only 30% of the ^131 I-labeled multi-tyrosinated peptides WOC-3A and WOC-3B compounds stored in saline had degraded.

[3] = tested on: bronchioloalveolar carcinoma of the lung; experiment: Subcutaneous octreotide acetate therapy in a human patient; details: 2 mg/day subcutaneous
From the text: The patient is a person diagnosed with bronchioloalveolar carcinoma of the lung approximately four years ago. […] underwent a right upperlobectomy and intensive chemotherapy with multiple agents.

[4] = target: T1, type 2 somatostatin receptors (SSTR2) (Homo sapiens, UniProt P30874); experiment: Somatostatin receptor binding assay on IMR32 membranes
T1 construct: IMR32 membrane fractions (100-150 μg) were incubated with 0.015 pM; host or cells: IMR32 human neuroblastoma cells (membrane fractions)
Experimental: The IMR32 cells were maintained in minimal essential media (MEM) supplemented with 15% heat-inactivated fetal bovine serum, 100 U/ml penicillin, 100 μg/ml streptomycin and nonessential amino acids. Cultured cells were harvested in a buffer containing 20 mM HEPES, 2 mM MgCl2, 5 mM EDTA, 1 mM 2-mercaptoethanol, 150 mM NaCl, and 50 μg/ml phenylmethylsulfonylfluoride (PMSF), (pH 7.4) at a concentration of 1×10^6 cells/ml. Cell membranes were prepared according to the method of O'Dorisio, M. S. et al., Cell Growth and Differentiation, 5:1-8, 1994. Membrane fractions were prepared by differential centrifugation and the membranes resuspended in buffer and stored at -80° for receptor binding studies.
Binding assays were carried out according to the method of O'Dorisio et al., supra. […] The reaction was terminated by centrifugation at 11,000×G for 3 minutes. Supernatant fluid was aspirated and the radioactivity of bound ligand in the pellet quantified in a gamma counter.
Specific binding was calculated using the difference between total and non-specific (in the presence of 1 μM unlabeled ligand) binding. Equilibrium dissociation constants (KD) and the maximal number of binding sites (Bmax) were determined using seven concentrations of unlabeled peptide in a competitive binding curve and calculated using a computerized nonlinear least squares fit to the mass-law equation of Munson and Rodbard, Munson, P. J. et al., Anal. Biochem., 107:220-239, 1980, as modified by McPhearson, G. A., J. of Pharm. Meth., 14:213-228, 1985.

[5] = tested on: bronchioloalveolar carcinoma of the lung (somatostatin receptor-expressing tumors); experiment: Biodistribution and dosimetry of 131I WOC-3A (1.6 mCi i.v.) in a human patient; assay type: in vivo; details: extrapolated for a dose of 1,500 mCi
Experimental: A batch of ^131 I WOC-3A (1.6 mCi) was made (Iso-Tex Corporation, Friendswood, TX) and its sterility and pyrogenicity tested at Iso-Tex. Radiolabeled WOC-3A was injected intravenously and the pharmacokinetics and biodistribution of the radiolabeled compound were calculated. The tumor/normal tissue ratio of distribution of radiolabeled WOC-3A was approximately 3:1 to 6:1.
Following injection of 1.6 mCi of ^131 I WOC-3A, the patient underwent three days of nuclear medicine scanning using a 3-headed SPECT camera as well as an ADAC camera. In addition, whole body radiation counts were obtained to calculate whole-body loss of radioisotope over the three day period. […] Bone marrow would receive in excess of 450 rads (a dose requiring bone marrow transplantation in 50% of patients). Thus, in preparation for bone marrow transplantation, the patient underwent bone marrow harvest to provide cells for reinfusion after WOC-3 therapy and sufficient clearance of the radiolabeled analog from the patient's circulation.

[6] = IMR32 membranes, competitive binding, 17° C., 30 minutes

T1 sequence (P30874 whole entry): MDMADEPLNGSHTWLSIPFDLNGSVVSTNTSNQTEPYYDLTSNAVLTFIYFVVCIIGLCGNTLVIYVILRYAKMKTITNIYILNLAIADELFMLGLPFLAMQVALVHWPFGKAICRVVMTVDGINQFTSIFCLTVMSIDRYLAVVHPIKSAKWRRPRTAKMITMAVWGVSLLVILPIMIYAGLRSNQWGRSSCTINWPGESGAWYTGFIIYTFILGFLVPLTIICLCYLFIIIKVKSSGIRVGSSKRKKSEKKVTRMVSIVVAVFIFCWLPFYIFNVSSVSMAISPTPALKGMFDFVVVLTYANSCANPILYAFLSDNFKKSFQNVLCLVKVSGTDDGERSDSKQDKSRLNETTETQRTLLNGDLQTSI

SMILES	IC50 [1]	Kd [4, 6]	further results
CC(C)[C@@H]1NC(=O)[C@H](CCCCN)NC(=O)[C@@H](Cc2c[nH]c3ccccc23)NC(=O)[C@H](Cc2ccc(O)cc2)NC(=O)[C@@H](NC(=O)[C@@H](Cc2ccc(O)cc2)NC(=O)[C@@H](N)Cc2ccc(O)cc2)CSSC[C@@H](C(=O)N[C@H](C(N)=O)[C@@H](C)O)NC1=O [WOC-3B, cyclic(tyrosine-D-tyrosine-cysteine-tyrosine-D-tryptophan-lysine-valine-cy steine-threonine)] (H-Y[dY]CY[dW]KVCT-NH2; disulfide 3-8)	0.66 ± 0.06 nM		Fraction of labeled peptide degraded [2]: 30%
C[C@@H](O)[C@@H]1NC(=O)[C@H](CCCCN)NC(=O)[C@@H](Cc2c[nH]c3ccccc23)NC(=O)[C@H](Cc2ccccc2)NC(=O)[C@@H](NC(=O)[C@H](N)Cc2ccccc2)CSSC[C@@H](C(=O)N[C@H](CO)[C@@H](C)O)NC1=O [octreotide acetate, D-Phe-Cys-Phe-D-Trp-Lys-Thr-Cys-Thr(ol)]			Tolerability of therapy [3]: tolerated this therapy well; Decrease in tumor volume ([3]; initial response, tumors later progressed): 25%
C[C@@H](O)[C@H](NC(=O)[C@@H]1CSSC[C@H](NC(=O)[C@@H](Cc2ccccc2)NC(=O)[C@H](CCCCNC(=O)[C@H](CCCCNC(=O)[C@H](CCCCNC(=O)[C@H](N)Cc2ccc(O)cc2)NC(=O)[C@H](N)Cc2ccc(O)cc2)NC(=O)[C@H](CCCCNC(=O)[C@H](N)Cc2ccc(O)cc2)NC(=O)[C@H](N)Cc2ccc(O)cc2)NC(=O)[C@H](CCCCNC(=O)[C@H](CCCCNC(=O)[C@H](N)Cc2ccc(O)cc2)NC(=O)[C@H](N)Cc2ccc(O)cc2)NC(=O)[C@H](CCCCNC(=O)[C@H](N)Cc2ccc(O)cc2)NC(=O)[C@H](N)Cc2ccc(O)cc2)C(=O)N[C@@H](Cc2ccccc2)C(=O)N[C@H](Cc2c[nH]c3ccccc23)C(=O)N[C@@H](CCCCN)C(=O)N[C@@H]([C@@H](C)O)C(=O)N1)C(N)=O [WOC-8, cyclic[(D-tyrosine)8-(lysine)4-(lysine)2-lysine-cysteine-phenylalanine-D-tryptophan-lysine-threonine-cysteine-threonine]]	2.46 ± 0.69 nM		
CC(C)[C@@H]1NC(=O)[C@H](CCCCN)NC(=O)[C@@H](Cc2c[nH]c3ccccc23)NC(=O)[C@H](Cc2ccc(O)cc2)NC(=O)[C@@H](NC(=O)[C@H](N)Cc2ccc(O)cc2)CSSC[C@@H](C(=O)N[C@H](C(N)=O)[C@@H](C)O)NC1=O [WOC-2A, cyclic-(D-tyrosine-cysteine-tyrosine-D-tryptophan-lysine-valine-cysteine-t hreonine-NH2)]	4.84 ± 0.58 nM	5.73 ± 0.22 nM	
CC(C)[C@@H]1NC(=O)[C@H](CCCCN)NC(=O)[C@@H](Cc2c[nH]c3ccccc23)NC(=O)[C@H](Cc2ccc(O)cc2)NC(=O)[C@@H](NC(=O)[C@@H](Cc2ccc(O)cc2)NC(=O)[C@H](C)NC(=O)[C@@H](N)Cc2ccc(O)cc2)CSSC[C@@H](C(=O)N[C@H](C(N)=O)[C@@H](C)O)NC1=O [WOC-3A, cyclic(tyrosine-alanine-D-tyrosine-cysteine-tyrosine-D-tryptophan-lysine-v aline-cysteine-threonine)] (H-YA[dY]CY[dW]KVCT-NH2; disulfide 4-9)	0.96 ± 0.01 nM		Radiation dose to bone marrow [5]: > 450 rads; Fraction of labeled peptide degraded [2]: 30%; Displacement of bound radioactivity by unlabeled ligand ([4]; 10,000-fold excess of unlabeled WOC-3A or native somatostatin): no radioactivity was displaced; Total binding of radiolabeled analog to IMR-32 membranes ([4]; radiolabeled analog): high levels of total binding
C[C@@H](O)[C@H](NC(=O)[C@@H]1CSSC[C@H](NC(=O)[C@@H](Cc2ccc(O)cc2)NC(=O)[C@@H](N)Cc2ccc(O)cc2)C(=O)N[C@@H](Cc2ccccc2)C(=O)N[C@H](Cc2c[nH]c3ccccc23)C(=O)N[C@@H](CCCCN)C(=O)N[C@@H]([C@@H](C)O)C(=O)N1)C(N)=O [WOC-2B, cyclic-(tyrosine-D-tyrosine-cysteine-phenylalanine-D-tryptophan-lysine-thr eonine-cysteine-threonine-NH2)] (H-Y[dY]CF[dW]KTCT-NH2; disulfide 3-8)		1.2 nM	
C[C@@H](O)[C@H](NC(=O)[C@@H]1CSSC[C@H](NC(=O)[C@@H](Cc2ccc(O)cc2)NC(=O)[C@H](Cc2ccc(O)cc2)NC(=O)[C@H](Cc2ccc(O)cc2)NC(=O)[C@H](N)Cc2ccc(O)cc2)C(=O)N[C@@H](Cc2ccccc2)C(=O)N[C@H](Cc2c[nH]c3ccccc23)C(=O)N[C@@H](CCCCN)C(=O)N[C@@H]([C@@H](C)O)C(=O)N1)C(N)=O [WOC-4, cyclic(D-tyrosine-tyrosine-tyrosine-D-tyrosine-cysteine-phenylalanine-D-tr yptophan-lysine-threonine-cysteine-threonine)] (H-[dY]YY[dY]CF[dW]KTCT-NH2; disulfide 5-10)		1 nM	
CC(C)[C@@H]1NC(=O)[C@H](CCCCN)NC(=O)[C@@H](Cc2c[nH]c3ccccc23)NC(=O)[C@H](Cc2ccc(O)cc2)NC(=O)[C@@H](NC(=O)[C@H](N)Cc2ccc3ccccc3c2)CSSC[C@@H](C(=O)N[C@H](C(N)=O)[C@@H](C)O)NC1=O [LANREOTIDE ®, Dβ-Nal-Cys-Tyr-D-Trp-Lys-Val-Cys-Thr(NH2), reference compound]	0.4 ± 0.1 nM		Kd [4]: 1.05 ± 0.51 nM
C[C@H](N)C(=O)NCC(=O)N[C@H]1CSSC[C@@H](C(=O)O)NC(=O)[C@H](CO)NC(=O)[C@H]([C@@H](C)O)NC(=O)[C@H](Cc2ccccc2)NC(=O)[C@H]([C@@H](C)O)NC(=O)[C@H](CCCCN)NC(=O)[C@H](Cc2c[nH]c3ccccc23)NC(=O)[C@H](Cc2ccccc2)NC(=O)[C@H](Cc2ccccc2)NC(=O)[C@H](CC(N)=O)NC(=O)[C@H](CCCCN)NC1=O [Somatostatin, reference compound]	0.46 ± 0.04 nM		
